The text below walks through data of US20080214661A1, “Process To Obtain Dibenzylbutyrolactonic, Tetrahydrofuranic Lignans And Their Synthetic And Semi-Synthetic Derivatives, Their Analgesic And Anti-Inflammatory Activities, Topical And/Or Systemic Formulations Containing Said Lignans And Their Respective Therapeutic Method” (FUNDACADO DE AMPARO A PESQUISA DO ESTADO DE SAO PAULO, priority 2005, published 2008).

Holding throughout (format): in vivo
In data set [1] the test system is digestive system. Briefly: preliminary tests of side effects (gastric, biochemical, hematological).
Data set [2] concerns rat foot edema induced by carrageenin. The data set can be described thus: rat foot edema induced by carrageenin. Conditions: oral administration; for inhibition as anti-inflammatory agent (rat foot edema): doses of 10, 20, 30 and 40 mg/kg, carrageenin 100 μg/foot, edema volume at third hour, dose for the value not stated. How it is done: Each bar represents the average ±SE (n=6) of the increase in edema volume (third hour) after the injection of carrageenin. Data were analyzed by one-way ANOVA and by Dunnett's multiple comparison variation test and the statistical significance was made for the level of p<0.05 (*) and p<0.01 (**).
(In general: Carrageenan injected into the paw causes an acute inflammation.)

For data set [3], the system named is writhing induced by 0.6% acetic acid solution in mice. The data set can be described thus: writhing test induced by intraperitoneal injection of acetic acid. The note with it: oral administration, doses of 10, 20, 30 and 40 mg/kg; 0.6% acetic acid i.p. in mice; number of writhing in 20 minutes; dose for the value not stated. How it is done: Each bar represents the average ±SE (n=6) of the number of writhing in 20 minutes for different doses. Data were analyzed by one-way ANOVA and by Dunnett's multiple comparison variation test and the statistical significance was made for the level of p<0.05 (*) and p<0,01 (**)
(In general: In writhing tests, fewer writhes than in controls are read as antinociception.)

In the case of `Nc1cc2c(cc1CC1COC(=O)C1Cc1cc3c(cc1N)OCO3)OCO2` (single isomer, unassigned; (-)) [compound 8, (-)-6,6′-diaminohinokinin], in data set [1], the gastric effects entry is listed as “not evident”; the “other biochemical and hematological disturbances” value was “non-occurrence”. Moreover, the “inhibition as anti-inflammatory agent (rat foot edema)” value (“inhibition as anti-inflammatory agent” for short) in data set [2] is 82%. Further, in data set [3], the “inhibition as analgesic agent (writhing test)” value (“inhibition as analgesic agent” below) is 92%.
For the compound `c1ccc(COC2OC[C@@H](Cc3ccc4c(c3)OCO4)[C@@H]2Cc2ccc3c(c2)OCO3)cc1` (stereo partly drawn) [compound 5, (-)—O-benzyl cubebin], in data set [2] (10-40 mg/kg, carrageenin-induced rat foot edema), the “efficacy as anti-inflammatory agent” value is “not efficient as an anti-inflammatory agent”. In addition, in data set [3], the “inhibition as analgesic agent” value amounted to 89%.
For the compound `O=C1OC[C@@H](Cc2ccc3c(c2)OCO3)[C@@H]1Cc1ccc2c(c1)OCO2` [compound 6, (-)-hinokinin], in data set [1], the gastric effects entry is on record as “not evident”; the “other biochemical and hematological disturbances” value is given as “non-occurrence”. Further, the “inhibition as anti-inflammatory agent” value in data set [2] is listed as 71%. The “inhibition as analgesic agent” value in data set [3] was determined as 95%.
`COc1ccc2c(c1)c(CC(=O)O)c(C)n2C(=O)c1ccc(Cl)cc1` [indomethacin, reference compound]: the gastric effects result in data set [1] is reported as “gastric effects as observed”.
(-)-6,6′-dinitroinokinin [compound 7]: in data set [2], the “inhibition as anti-inflammatory agent” value is given as 62%. In addition, in data set [3], the “inhibition as analgesic agent” value is on record as 75%.
